Assay results: patent publication US20210300900A1, “OGA INHIBITOR COMPOUNDS” (Janssen Pharmaceutica NV, priority 2018, published 2021)

Columns and labels:
OGA = biological target: T1, OGA (Homo sapiens, UniProt O60502); test: OGA cellular assay (ICC detection of O-GlcNAcylated proteins in HEK293 cells inducible for P301L mutant human Tau); assay type: cell-based; details: 6 hours incubation; for Cellular Emax (%) / EC50 / Cellular hOGA; pEC50: HEK293 cells inducible for P301L mutant human Tau; for Cellular Emax (%) / Emax: maximum = Thiamet G 200 uM; for EC50: read-out: Cellular hOGA, pEC50 (converted); for Emax: HEK293, HEK293 cells inducible for P301L mutant human Tau
T1 construct: endogenous in cells; host or cells: HEK293 cells inducible for P301L mutant human Tau (isoform 2N4R)
T1 sequence (O60502 1-916): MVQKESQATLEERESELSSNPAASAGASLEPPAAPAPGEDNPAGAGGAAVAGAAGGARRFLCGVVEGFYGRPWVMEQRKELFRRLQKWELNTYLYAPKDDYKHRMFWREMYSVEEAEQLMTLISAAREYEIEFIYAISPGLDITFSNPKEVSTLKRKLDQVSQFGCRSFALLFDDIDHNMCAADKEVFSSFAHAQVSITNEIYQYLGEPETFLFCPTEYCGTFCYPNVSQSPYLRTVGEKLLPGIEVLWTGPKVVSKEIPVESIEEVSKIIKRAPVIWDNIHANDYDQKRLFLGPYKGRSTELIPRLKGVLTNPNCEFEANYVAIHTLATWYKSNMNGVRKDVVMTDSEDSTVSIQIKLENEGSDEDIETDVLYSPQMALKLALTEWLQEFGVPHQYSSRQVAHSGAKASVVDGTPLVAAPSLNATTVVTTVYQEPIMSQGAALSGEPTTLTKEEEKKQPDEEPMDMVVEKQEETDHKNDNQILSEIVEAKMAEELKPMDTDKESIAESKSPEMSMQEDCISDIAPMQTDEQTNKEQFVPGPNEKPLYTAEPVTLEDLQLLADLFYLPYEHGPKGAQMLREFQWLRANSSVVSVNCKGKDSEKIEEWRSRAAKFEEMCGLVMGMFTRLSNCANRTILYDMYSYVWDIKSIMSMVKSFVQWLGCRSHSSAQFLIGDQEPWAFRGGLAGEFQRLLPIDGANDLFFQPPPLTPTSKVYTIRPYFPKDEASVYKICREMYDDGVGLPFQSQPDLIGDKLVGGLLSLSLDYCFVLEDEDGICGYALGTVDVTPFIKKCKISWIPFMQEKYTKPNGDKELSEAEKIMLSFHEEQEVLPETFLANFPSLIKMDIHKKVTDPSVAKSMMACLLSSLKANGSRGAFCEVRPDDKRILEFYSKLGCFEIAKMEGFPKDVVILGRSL
Protocol: HEK293 cells inducible for P301L mutant human Tau (isoform 2N4R) were established at Janssen. Thiamet-G was used for both plate validation (high control) and as reference compound (reference EC50 assay validation). OGA inhibition is evaluated through the immunocytochemical (ICC) detection of O-GlcNAcylated proteins by the use of a monoclonal antibody (CTD110.6; Cell Signaling, #9875) detecting O-GlcNAcylated residues as previously described (Dorfmueller et al. 2010 Chemistry & biology, 17:1250). Inhibition of OGA will result in an increase of O-GlcNAcylated protein levels resulting in an increased signal in the experiment. Cell nuclei are stained with Hoechst to give a cell culture quality control and a rough estimate of immediate compounds toxicity, if any. ICC pictures are imaged with a Perkin Elmer Opera Phenix plate microscope and quantified with the provided software Perkin Elmer Harmony 4.1.
Cells were propagated in DMEM high Glucose (Sigma, #D5796) following standard procedures. 2 days before the cell assay cells are split, counted and seeded in Poly-D-Lysine (PDL) coated 96-wells (Greiner, #655946) plate at a cell density of 12,000 cells per cm^2 (4,000 cells per well) in 100 μl of Assay Medium (Low Glucose medium is used to reduce basal levels of GlcNAcylation) (Park et al. 2014 The Journal of biological chemistry 289:13519). At the day of compound test medium from assay plates was removed and replenished with 90 μl of fresh Assay Medium. 10 μl of compounds at a 10 fold final concentration were added to the wells. Plates were centrifuged shortly before incubation in the cell incubator for 6 hours. DMSO concentration was set to 0.2%. Medium is discarded by applying vacuum. For staining of cells medium was removed and cells washed once with 100 μl D-PBS (Sigma, #D8537). From next step onwards unless other stated assay volume was always 50 μl and incubation was performed without agitation and at room temperature. Cells were fixed in 50 μl of a 4% paraformaldehyde (PFA, Alpha aesar, #043368) PBS solution for 15 minutes at room temperature. […] Before analysis samples were washed 2 times manually for 5 minutes in ICC base buffer.
Imaging is performed using Perkin Elmer Phenix Opera using a water 20×objective and recording 9 fields per well. Intensity readout at 488 nm is used as a measure of O-GlcNAcylation level of total proteins in wells. To assess potential toxicity of compounds nuclei were counted using the Hoechst staining. IC50-values are calculated using parametric non-linear regression model fitting. As a maximum inhibition Thiamet G at a 200 uM concentration is present on each plate. In addition, a concentration response of Thiamet G is calculated on each plate.

[1] = biological target: T2, recombinant human Meningioma Expressed Antigen 5 (MGEA5), also referred to as O-GcNAcase (OGA) (Homo sapiens, UniProt O60502); test: OGA biochemical assay (inhibition of FM-GlcNAc hydrolysis, fluorescence); details: FM-GlcNAc substrate; for Emax: read-out: Enzymatic Emax (%); for IC50: read-out: Enzymatic hOGA, pIC50 (converted)
T2 construct: Full length OGA enzyme was purchased at OnGene (cat #TP322411); purchased OnGene (so in the source)
T2 sequence (O60502 1-916): T1 sequence (O60502 1-916)
From the text: The assay is based on the inhibition of the hydrolysis of fluorescein mono-β-D-N-Acetyl-Glucosamine (FM-GlcNAc) (Mariappa et al. 2015, Biochem J 470:255) by the recombinant human Meningioma Expressed Antigen 5 (MGEA5), also referred to as O-GcNAcase (OGA). The hydrolysis FM-GlcNAc (Marker Gene technologies, cat #M1485) results in the formation of B-D-N-glucosamineacetate and fluorescein. The fluorescence of the latter can be measured at excitation wavelength 485 nm and emission wavelength 538 nm. An increase in enzyme activity results in an increase in fluorescence signal. Full length OGA enzyme was purchased at OnGene (cat #TP322411). The enzyme was stored in 25 mM Tris.HCl, pH 7.3, 100 mM glycine, 10% glycerol at −20° C. Thiamet G and GlcNAcStatin were tested as reference compounds (Yuzwa et al. 2008 Nature Chemical Biology 4:483; Yuzwa et al. 2012 Nature Chemical Biology 8:393). The assay was performed in 200 mM Citrate/phosphate buffer supplemented with 0.005% Tween-20. 35.6 g Na2HPO4 2H2O (Sigma, #C0759) were dissolved in 1 L water to obtain a 200 mM solution. 19.2 g citric acid (Merck, #1.06580) was dissolved in 1 L water to obtain a 100 mM solution. pH of the sodiumphosphate solution was adjusted with the citric acid solution to 7.2. The buffer to stop the reaction consists of a 500 mM Carbonate buffer, pH 11.0. 734 mg FM-GlcNAc were dissolved in 5.48 mL DMSO to obtain a 250 mM solution and was stored at −20° C. OGA was used at a 2 nM concentration and FM-GlcNAc at a 100 uM final concentration. Dilutions were prepared in assay buffer.
50 nl of a compound dissolved in DMSO was dispensed on Black Proxiplate TM 384 Plus Assay plates (Perkin Elmer, #6008269) and 3 μl fl-OGA enzyme mix added subsequently. Plates were pre-incubated for 60 min at room temperature and then 2 μl FM-GlcNAc substrate mix added. […] Plates were briefly centrifuged for 1 min at 1000 rpm and incubate at room temperature for 6 h. To stop the reaction 5 μl STOP buffer were added and plates centrifuge again 1 min at 1000 rpm. Fluorescence was quantified in the Thermo Scientific Fluoroskan Ascent or the PerkinElmer EnVision with excitation wavelength 485 nm and emission wavelength 538 nm.
For analysis a best-fit curve is fitted by a minimum sum of squares method. From this an IC50 value and Hill coefficient was obtained. High control (no inhibitor) and low control (saturating concentrations of standard inhibitor) were used to define the minimum and maximum values.

SMILES	EC50 (OGA) [nM]	Emax [1] [%]	IC50 [1] [nM]	Emax (OGA) [%]	Enzymatic Emax (%) [1] [%]	also measured
COc1cc(C[C@H]2CCCN(C(C)c3nc(OC)ccc3F)C2)cc(C)n1 (stereo partly drawn) [Product 118]	219	99	87.1	–	–	Cellular Emax (%) (OGA; listed as 118): 82%
CCOc1cc(CN2CCC[C@H](Cc3cc(C)nc(C)c3)C2)n(C)n1 [Product 162]	> 1000	–	–	-6	36	–
COc1cccc([C@H](C)N2CCC[C@@H](CNc3cc(C)nc(C(F)(F)F)c3)C2)n1 [Product 95]	–	–	–	–	103	Cellular hOGA; pEC50 (OGA): <6; Cellular Emax (%) (OGA): 44%; Enzymatic hOGA; pIC50 [1]: 7.8
COCc1cc(C(C)N2CCC[C@H](Cc3cc(C)nc(C)c3)C2)n[nH]1 (stereo partly drawn) [Product 19]	> 1000	101	43.7	42	–	–
COc1ccc(F)c(C(C)N2CCCC(CNc3cc(C)nc(C(F)(F)F)c3)C2)n1 (stereo not drawn) [Product 96]	> 1000	104	13.5	23	–	–
CC(=O)Nc1cnc(CN2CCC[C@H](Cc3cc(C)nc(C)c3)C2)cn1 [Product 63]	> 1000	93	1200	25	–	–
CC(=O)Nc1ccc(CN2CCC[C@H](Cc3cc(C)nc(C)c3)C2)s1 [Product 28]	309	100	19.1	75	–	–
CC(=O)Nc1cc([C@H](C)N2CCC[C@H](Cc3cc(C)nc(C)c3)C2)n[nH]1 [Product 5]	–	–	–	–	104	Cellular hOGA; pEC50 (OGA): 7.44; Cellular Emax (%) (OGA): 80%; Enzymatic hOGA; pIC50 [1]: 8.91
COc1cc(C(C)N2CC[C@H](Cc3cc(C)nc(OC)c3)C2)c(F)cn1 (mixture of isomers) [Product 130]	> 1000	95	871	4	–	–
COc1ccc(F)c(C(C)N2CCC[C@H](Cc3cc(C)nc(C(F)(F)F)c3)C2)n1 (stereo partly drawn) [Product 77]	955	–	14.8	49	101	–
Cc1cc(C[C@H]2CCCN(C(C)c3cc(C4CC4)[nH]n3)C2)cc(C)n1 (mixture of isomers) [Product 21]	468	101	24.5	59	–	–
COc1cc(C[C@H]2CCCN(C(C)c3nc(OC)ccc3F)C2)cc(C)n1 (stereo partly drawn) [Product 76]	> 1000	–	52.5	–	–	Cellular Emax (%) (OGA; listed as 76): 30%; Enzymatic Emax (%) ([1]; listed as 76): 101%
CC(=O)Nc1ccc(C(C)N2CCC[C@H](Cc3cc(C)nc(C)c3)C2)s1 (mixture of isomers) [Product 134]	240	101	4.68	59	–	–
COc1cc(C[C@H]2CCCN(C(C)c3cc(NC(C)=O)[nH]n3)C2)cc(C)n1 (stereo partly drawn) [Product 66]	200	102	18.6	83	–	–
COc1ccc(F)c([C@H](C)N2CCC[C@H](Cc3cc(C)nc(C)c3)C2)n1 [Product 42]	–	–	–	–	103	Cellular hOGA; pEC50 (OGA): 7.03; Cellular Emax (%) (OGA): 100%; Enzymatic hOGA; pIC50 [1]: 7.88
CCOc1cc([C@H](C)N2CCC[C@H](Cc3cc(C)nc(C)c3)C2)n[nH]1 [Product 16]	–	–	–	–	101	Cellular hOGA; pEC50 (OGA): 6.05; Cellular Emax (%) (OGA): 31%; Enzymatic hOGA; pIC50 [1]: 7.45
Cc1cc(C[C@H]2CCCN([C@H](C)c3nc(OC4CCC4)ccc3F)C2)cc(C)n1 [Product 54]	–	–	–	–	10	Enzymatic hOGA; pIC50 [1]: <5
CC(=O)Nc1cc(C(C)N2CCCC(Oc3cc(C)nc(C(F)(F)F)c3)C2)n[nH]1 (stereo not drawn) [Product 138]	–	81	2450	–	–	–
COc1cccc(C(C)N2CC[C@H](Cc3cncc(F)c3)C2)n1 (mixture of isomers) [Product 144]	–	43.4	> 10000	–	–	–
CC(=O)Nc1cc(C(C)N2CC[C@H](Oc3cc(C)nc(C)c3)C2)n[nH]1 (mixture of isomers) [Product 116]	–	57	8320	–	–	–
COc1cccc(C(C)N2CC[C@H](Cc3cc(C)nc(C(F)(F)F)c3)C2)n1 (mixture of isomers) [Product 121]	–	96	741	–	–	–
CC(=O)Nc1cc(CN2CCC[C@H](Cc3cc(C)nc(C)c3)C2)cs1 [Product 27]	–	89	1050	–	–	–
